pEC50: −log10 of the molar value. Where two headings read alike, the source gives them in different places.
Tests used:
[1] = tested on: 63 targets with known safety liabilities; experiment: In vitro pharmacological profiling (IPP) panel, screening at 10 or 100 µM and dose response, minimum IC50/AC50; assay type: biochemical; details: lowest AC50 across IPP panel (systemic targets); cell_type -; read-out: ipp_lowest_ac50_systemic PoD
[2] = biological target: T1, Pregnane X receptor PXR, NR1I2 (h) (Homo sapiens, UniProt O75469)
T1 sequence (O75469 1-434): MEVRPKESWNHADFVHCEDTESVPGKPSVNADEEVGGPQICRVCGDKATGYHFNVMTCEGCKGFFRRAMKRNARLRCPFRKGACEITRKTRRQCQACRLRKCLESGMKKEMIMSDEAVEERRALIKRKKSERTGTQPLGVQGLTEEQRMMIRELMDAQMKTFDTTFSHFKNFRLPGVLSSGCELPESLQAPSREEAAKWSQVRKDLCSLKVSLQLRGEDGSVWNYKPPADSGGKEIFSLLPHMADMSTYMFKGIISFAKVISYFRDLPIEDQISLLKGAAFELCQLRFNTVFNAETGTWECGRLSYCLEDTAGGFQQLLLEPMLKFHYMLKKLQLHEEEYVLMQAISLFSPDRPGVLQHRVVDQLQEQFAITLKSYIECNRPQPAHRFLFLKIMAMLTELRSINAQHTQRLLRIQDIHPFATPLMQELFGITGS

[3] = biological target: T2, Adenosine receptor A2a, ADORA2A (h) (Homo sapiens, UniProt P29274); experiment: IPP ADORA2A binding (agonist radioligand); details: control NECA
T2 construct: purchased Eurofins Cerep (SafetyScreen44-based IPP panel)

[4] = tested on: Sodium channel protein type 5 subunit alpha (site 2), SCN5A (r); assay type: binding, rat
[5] = PBK level L2; per chemical see Peff Reference; ref [3],[4],[11]; cited from earlier work
[6] = tested on: MCF7 cells; experiment: High-throughput transcriptomics (HTTr, TempO-Seq), MCF7, 24 h; assay type: cell-based, human; details: MCF-7; for pod_httr_bifrost PoD: HTTr BIFROST PoD; for podl_path_minbmd PoD: HTTr minimum pathway BMD(L)
Experimental: (§1) HepG2, HepaRG, and MCF7 cells were treated with each compound for 24 h across a dose range of 7 concentrations and lysed using TempO-Seq lysis buffer (BioSpyder Technologies, proprietary kit, see [Middleton et al. 2022] for method details). Sequencing was performed using TempO-Seq (BioClavis) version 2 of the human whole transcriptome panel and analyzed as described previously in Middleton et al.

[7] = tested on: HepG2 cells; experiment: High-throughput transcriptomics (HTTr, TempO-Seq), HepG2, 24 h; assay type: cell-based, human; details: HepG2; for pod_httr_bifrost PoD: HTTr BIFROST PoD; for podl_path_minbmd PoD: HTTr minimum pathway BMD(L)
Experimental: as §1

[8] = biological target: Potassium voltage-gated channel subfamily H member 2 hERG, KCNH2 (h) (Homo sapiens, UniProt Q12809); details: human, 100 µM
[9] = tested on: rat; details: ref [2], cited from earlier work
[10] = tested on: HepaRG cells; experiment: High-throughput transcriptomics (HTTr, TempO-Seq), HepaRG, 24 h; assay type: cell-based, human; details: HepaRG; for pod_httr_bifrost PoD: HTTr BIFROST PoD; for podl_path_minbmd PoD: HTTr minimum pathway BMD(L)
Experimental: as §1

[11] = biological target: T3, Constitutive androstane receptor CAR, NR1I3 (h) (Homo sapiens, UniProt Q14994); assay type: biochemical
T3 sequence (Q14994 1-352): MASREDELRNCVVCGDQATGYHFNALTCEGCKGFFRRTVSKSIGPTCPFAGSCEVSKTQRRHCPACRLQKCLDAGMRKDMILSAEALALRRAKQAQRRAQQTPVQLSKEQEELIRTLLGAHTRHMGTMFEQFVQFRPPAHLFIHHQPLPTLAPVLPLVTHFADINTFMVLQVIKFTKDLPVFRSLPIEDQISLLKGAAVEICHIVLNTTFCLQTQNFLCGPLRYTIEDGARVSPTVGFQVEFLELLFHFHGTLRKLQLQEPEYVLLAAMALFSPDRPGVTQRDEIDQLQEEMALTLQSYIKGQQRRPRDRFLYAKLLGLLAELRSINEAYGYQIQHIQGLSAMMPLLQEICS

[12] = tested on: Thyroid hormone receptor alpha, THRA (h); experiment: IPP THRA coactivator recruitment (agonist); assay type: biochemical, human; details: agonist, T3
[13] = tested on: Gamma-aminobutyric acid receptor subunit alpha-1 BZD site, GABRA1A (r); assay type: binding, rat
[14] = tested on: HepG2 cells; experiment: Cell stress panel (CSP), 24 h, 8 concentrations, BIFROST global PoD; assay type: cell-based; details: HepG2; cell stress panel PoD
Experimental: Compounds were tested using the previously developed cell stress panel ([Hatherell et al. 2020]) and the expanded biomarker panel outlined in Middleton et al. HepG2 cells were treated with all compounds for 24 h across 8 concentrations prior to biomarker analysis. The same plate layout and number of replicates (3 biological and 2 technical) were used as previously for each assay within the panel.

[15] = tested on: Glutamate receptor ionotropic NMDA 1 non-selective, GRIN1 (r)
[16] = human
[17] = biological target: T4, Estrogen receptor, ER1 (h) (Homo sapiens, UniProt P03372); experiment: IPP ER1 coactivator recruitment (agonist); assay type: biochemical; details: 100 uM, estriol, * denotes assay interference (2-Amino-6-chloro-4-nitrophenol, HC Red 3)
T4 construct: purchased Eurofins Cerep (SafetyScreen44-based IPP panel)
T4 sequence (P03372 1-595): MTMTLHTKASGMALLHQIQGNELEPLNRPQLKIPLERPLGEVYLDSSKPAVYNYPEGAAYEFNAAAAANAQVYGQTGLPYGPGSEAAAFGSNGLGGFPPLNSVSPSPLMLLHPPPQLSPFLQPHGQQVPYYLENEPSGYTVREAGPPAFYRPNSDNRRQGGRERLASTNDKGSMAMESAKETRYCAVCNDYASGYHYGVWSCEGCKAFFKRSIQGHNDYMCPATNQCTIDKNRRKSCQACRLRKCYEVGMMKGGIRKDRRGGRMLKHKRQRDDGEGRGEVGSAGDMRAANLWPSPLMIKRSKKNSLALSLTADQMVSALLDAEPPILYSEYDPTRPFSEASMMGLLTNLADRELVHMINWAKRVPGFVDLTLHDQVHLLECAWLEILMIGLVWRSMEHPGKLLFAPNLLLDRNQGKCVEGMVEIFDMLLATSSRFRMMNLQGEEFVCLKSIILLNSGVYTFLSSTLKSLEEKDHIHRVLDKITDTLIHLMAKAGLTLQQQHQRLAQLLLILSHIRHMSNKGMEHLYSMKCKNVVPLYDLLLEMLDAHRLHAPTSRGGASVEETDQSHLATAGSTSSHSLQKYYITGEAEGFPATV

[18] = tested on: Potassium Voltage-Gated Channel Kv non-selective, KCNQ1 (r); experiment: IPP KCNQ1 binding (antagonist radioligand); parameters: species or system rat
[19] = tested on: Tubulin (r); experiment: IPP Tubulin binding; parameters: species or system rat
[20] = biological target: T4, Estrogen receptor, ER1 (h); experiment: IPP ER1 coactivator recruitment (antagonist); assay type: biochemical; details: 100 uM, estriol, * denotes assay interference (2-Amino-6-chloro-4-nitrophenol, HC Red 3)
[21] = biological target: T5, Progesterone receptor, PGR (h) (Homo sapiens, UniProt P06401); experiment: biochemical; assay type: biochemical
T5 sequence (P06401 1-933): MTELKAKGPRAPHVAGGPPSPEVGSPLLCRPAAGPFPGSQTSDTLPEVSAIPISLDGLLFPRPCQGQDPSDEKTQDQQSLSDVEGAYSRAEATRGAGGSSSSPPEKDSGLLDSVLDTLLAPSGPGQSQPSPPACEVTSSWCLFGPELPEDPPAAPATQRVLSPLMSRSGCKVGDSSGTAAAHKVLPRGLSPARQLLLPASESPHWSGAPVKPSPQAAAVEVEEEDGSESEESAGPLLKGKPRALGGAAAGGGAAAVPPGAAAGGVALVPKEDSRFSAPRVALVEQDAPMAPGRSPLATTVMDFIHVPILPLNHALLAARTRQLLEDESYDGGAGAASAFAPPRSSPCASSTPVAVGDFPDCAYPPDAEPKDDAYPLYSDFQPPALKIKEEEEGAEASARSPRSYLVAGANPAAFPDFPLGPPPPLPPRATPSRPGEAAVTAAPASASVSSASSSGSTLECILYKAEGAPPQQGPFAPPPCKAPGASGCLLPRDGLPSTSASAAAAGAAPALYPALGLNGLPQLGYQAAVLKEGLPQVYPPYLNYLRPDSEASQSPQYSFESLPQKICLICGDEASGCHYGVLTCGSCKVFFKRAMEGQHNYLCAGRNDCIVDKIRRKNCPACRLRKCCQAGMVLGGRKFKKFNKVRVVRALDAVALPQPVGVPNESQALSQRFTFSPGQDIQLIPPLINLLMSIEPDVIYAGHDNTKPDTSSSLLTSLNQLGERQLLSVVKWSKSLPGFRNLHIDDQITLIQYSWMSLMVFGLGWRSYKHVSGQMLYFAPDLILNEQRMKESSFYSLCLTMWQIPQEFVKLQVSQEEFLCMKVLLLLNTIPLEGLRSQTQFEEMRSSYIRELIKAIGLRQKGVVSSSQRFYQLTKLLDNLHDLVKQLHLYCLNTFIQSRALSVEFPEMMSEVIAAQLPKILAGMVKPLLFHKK

[22] = tested on: mouse; details: mouse, cited from earlier work
[23] = biological target: Voltage-dependent L-type Ca2+ channel (dihydropyridine site), CACNA1C (r) (Rattus norvegicus, UniProt P22002); assay type: binding
[24] = 12 healthy female, cited from earlier work
[25] = 100 uM, * denotes assay interference (2-Amino-6-chloro-4-nitrophenol, HC Red 3)
[26] = IPP screening at 100 uM, control CGS 19755
[27] = 100 uM, ligand/control Colchicine
[28] = Oral 50 mg (IR: Capsule), fasted, calibration, ref Huttner et al. 2018
[29] = human, Oral 100 mg, Fasted, validation, ref Huttner et al., Journal of Antimicrobial Chemotherapy (2018) 74(6): 1656-1661

T2 sequence (P29274 whole entry): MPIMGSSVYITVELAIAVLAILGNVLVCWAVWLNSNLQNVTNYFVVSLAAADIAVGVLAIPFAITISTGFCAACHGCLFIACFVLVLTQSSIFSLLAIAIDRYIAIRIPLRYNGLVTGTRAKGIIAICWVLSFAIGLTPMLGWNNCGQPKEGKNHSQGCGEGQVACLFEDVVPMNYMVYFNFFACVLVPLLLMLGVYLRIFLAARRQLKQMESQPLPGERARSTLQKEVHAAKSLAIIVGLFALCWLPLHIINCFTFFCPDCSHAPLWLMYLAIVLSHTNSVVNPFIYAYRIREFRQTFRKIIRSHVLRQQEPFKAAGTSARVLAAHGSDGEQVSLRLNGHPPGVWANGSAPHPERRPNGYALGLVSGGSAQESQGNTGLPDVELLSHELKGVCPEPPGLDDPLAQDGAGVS
Chain of Potassium voltage-gated channel subfamily H member 2 hERG, KCNH2 (h) (Q12809 whole entry): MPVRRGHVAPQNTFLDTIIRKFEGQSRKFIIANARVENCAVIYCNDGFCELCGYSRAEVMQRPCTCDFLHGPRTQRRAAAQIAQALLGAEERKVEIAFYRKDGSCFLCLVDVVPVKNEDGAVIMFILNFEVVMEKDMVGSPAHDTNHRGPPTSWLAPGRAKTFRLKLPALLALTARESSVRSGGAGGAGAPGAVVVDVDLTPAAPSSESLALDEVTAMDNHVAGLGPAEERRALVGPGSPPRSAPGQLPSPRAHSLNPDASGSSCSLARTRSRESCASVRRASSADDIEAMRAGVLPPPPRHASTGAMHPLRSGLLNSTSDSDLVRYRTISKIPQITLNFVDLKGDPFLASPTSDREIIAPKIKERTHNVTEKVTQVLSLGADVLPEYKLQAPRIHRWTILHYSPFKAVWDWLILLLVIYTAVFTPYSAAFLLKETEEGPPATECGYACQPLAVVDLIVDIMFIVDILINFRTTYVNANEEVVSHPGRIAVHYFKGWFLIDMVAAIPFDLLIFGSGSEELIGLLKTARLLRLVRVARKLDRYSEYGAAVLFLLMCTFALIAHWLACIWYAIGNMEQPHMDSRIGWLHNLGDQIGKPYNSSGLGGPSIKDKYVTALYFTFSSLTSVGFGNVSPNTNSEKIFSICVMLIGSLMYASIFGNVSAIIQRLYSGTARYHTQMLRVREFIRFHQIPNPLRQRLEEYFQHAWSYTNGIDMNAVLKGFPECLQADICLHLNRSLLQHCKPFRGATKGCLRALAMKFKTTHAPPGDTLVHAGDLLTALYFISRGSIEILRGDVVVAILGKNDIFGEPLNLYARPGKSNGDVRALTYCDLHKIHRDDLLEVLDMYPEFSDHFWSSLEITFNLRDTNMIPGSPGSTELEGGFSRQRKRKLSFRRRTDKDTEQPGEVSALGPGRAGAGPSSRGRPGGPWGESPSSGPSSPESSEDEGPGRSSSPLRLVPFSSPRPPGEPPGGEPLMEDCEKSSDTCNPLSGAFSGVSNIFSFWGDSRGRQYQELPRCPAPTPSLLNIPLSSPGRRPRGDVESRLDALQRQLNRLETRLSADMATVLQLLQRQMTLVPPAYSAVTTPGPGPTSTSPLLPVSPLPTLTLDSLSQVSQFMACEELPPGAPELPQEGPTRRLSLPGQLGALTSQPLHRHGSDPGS
Chain of Voltage-dependent L-type Ca2+ channel (dihydropyridine site), CACNA1C (r) (P22002 whole entry): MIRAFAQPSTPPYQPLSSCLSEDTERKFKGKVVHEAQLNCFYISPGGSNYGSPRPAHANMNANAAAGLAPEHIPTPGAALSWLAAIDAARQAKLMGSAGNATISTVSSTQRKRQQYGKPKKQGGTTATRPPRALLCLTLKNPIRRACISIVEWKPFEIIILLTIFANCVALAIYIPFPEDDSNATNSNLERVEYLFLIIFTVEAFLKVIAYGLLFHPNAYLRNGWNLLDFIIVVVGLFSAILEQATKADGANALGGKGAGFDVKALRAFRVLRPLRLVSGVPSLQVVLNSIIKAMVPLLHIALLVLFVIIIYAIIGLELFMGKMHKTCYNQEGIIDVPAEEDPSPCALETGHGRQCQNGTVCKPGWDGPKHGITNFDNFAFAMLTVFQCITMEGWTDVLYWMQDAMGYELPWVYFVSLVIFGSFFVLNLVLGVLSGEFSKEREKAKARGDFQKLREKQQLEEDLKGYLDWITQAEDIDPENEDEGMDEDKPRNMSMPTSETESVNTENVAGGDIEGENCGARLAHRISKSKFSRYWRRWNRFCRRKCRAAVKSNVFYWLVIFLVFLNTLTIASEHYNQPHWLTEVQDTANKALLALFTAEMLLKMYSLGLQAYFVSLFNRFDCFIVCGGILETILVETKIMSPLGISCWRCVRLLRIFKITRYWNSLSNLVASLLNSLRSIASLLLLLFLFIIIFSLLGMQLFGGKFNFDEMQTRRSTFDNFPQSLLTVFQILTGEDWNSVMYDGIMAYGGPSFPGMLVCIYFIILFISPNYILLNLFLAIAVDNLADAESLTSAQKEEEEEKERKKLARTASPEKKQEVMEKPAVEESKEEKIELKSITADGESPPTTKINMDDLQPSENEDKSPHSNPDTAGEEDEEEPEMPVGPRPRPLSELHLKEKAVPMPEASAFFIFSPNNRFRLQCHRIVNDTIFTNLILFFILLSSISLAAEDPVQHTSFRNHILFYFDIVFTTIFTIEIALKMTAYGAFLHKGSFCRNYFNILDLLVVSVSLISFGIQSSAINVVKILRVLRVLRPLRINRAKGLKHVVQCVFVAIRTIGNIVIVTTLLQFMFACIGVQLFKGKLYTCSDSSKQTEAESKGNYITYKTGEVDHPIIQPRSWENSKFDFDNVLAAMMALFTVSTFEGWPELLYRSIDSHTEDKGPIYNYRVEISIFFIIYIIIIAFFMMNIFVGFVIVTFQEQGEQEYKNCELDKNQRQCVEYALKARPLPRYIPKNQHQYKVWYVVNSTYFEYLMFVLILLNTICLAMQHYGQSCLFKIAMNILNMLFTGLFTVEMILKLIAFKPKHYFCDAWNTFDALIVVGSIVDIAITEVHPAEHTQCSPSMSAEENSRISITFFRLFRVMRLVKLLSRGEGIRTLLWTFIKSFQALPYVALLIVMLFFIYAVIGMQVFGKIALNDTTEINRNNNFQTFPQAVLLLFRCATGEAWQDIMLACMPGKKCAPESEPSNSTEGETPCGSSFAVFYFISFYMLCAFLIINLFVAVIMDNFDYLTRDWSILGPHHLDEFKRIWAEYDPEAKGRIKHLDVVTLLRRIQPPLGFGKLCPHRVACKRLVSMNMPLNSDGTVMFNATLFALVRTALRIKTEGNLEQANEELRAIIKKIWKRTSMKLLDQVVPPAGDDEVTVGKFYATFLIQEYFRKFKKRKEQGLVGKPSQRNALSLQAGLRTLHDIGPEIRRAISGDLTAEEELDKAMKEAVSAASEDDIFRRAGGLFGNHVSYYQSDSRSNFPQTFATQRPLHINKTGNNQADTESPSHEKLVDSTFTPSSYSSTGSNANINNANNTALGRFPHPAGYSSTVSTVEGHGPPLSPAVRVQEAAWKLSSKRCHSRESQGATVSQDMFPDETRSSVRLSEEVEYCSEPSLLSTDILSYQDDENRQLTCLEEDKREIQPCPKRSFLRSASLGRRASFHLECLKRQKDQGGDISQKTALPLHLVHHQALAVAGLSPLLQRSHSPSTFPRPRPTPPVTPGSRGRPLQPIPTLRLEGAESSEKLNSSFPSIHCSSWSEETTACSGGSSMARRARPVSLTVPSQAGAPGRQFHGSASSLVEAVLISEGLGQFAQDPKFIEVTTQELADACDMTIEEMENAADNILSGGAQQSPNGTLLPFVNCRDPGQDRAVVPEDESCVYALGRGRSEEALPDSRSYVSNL

Nc1cc([N+](=O)[O-])cc(Cl)c1O [2-Amino-6-chloro-4-nitrophenol]
AC50 [1]: 1530 nM | IPP Dose Response PoD: PXR antagonist [2]: [37.1,80.3] | Specific binding ([3]; IPP screening at 100 uM): 3.6% | Specific binding ([4]; IPP screening at 100 uM, control veratridine): 31.5% | Peff [5]: 7.96 cm/s x E-04 | pod_httr_bifrost PoD [6]: 0.4471 µM | podl_path_minbmd PoD [6]: 9.316 µM | pod_httr_bifrost PoD [7]: 0.8029 µM | podl_path_minbmd PoD [7]: 158.096 µM | IPP screening %, Specific binding [8]: 10.7% | NOAEL ([9]; 90-day rat study, increased liver weights): 10 mg/kg bw/day | dose up to which no maternal or fetal effects were observed ([9]; reproductive and developmental toxicity rat study): 90 mg/kg bw/day | pod_httr_bifrost PoD [10]: 1.518 µM | podl_path_minbmd PoD [10]: 35.7772 µM | IPP Dose Response PoD: CAR antagonist effect [11]: [40.9,86.1] | IPP screening %, Coactivator recruitment [12, 25]: 41.0* % | Specific binding ([13]; IPP screening at 100 uM, control diazepam): 14.3% | pod_cell_stress PoD [14]: 0.2197 µM | Specific binding [15, 26]: 21.2% | risk [16]: 0 | IPP screening %, Coactivator recruitment [17]: 6.0* % | Specific binding ([18]; IPP screening at 100 uM, control α-dendrotoxin): 13.7% | IPP screening %, Specific binding [19, 27]: 5.0% | IPP screening %, Coactivator recruitment [20]: -9.0* %

O=P1(N(CCCl)CCCl)NCCCO1 (stereo not shown) [Cyclophosphamide, 2-[Bis(2-chloroethyl)amino]-1,3,2lambda~5~-oxazaphosphinan-2-one]
Specific binding ([3]; IPP screening at 100 uM): 15.0% | Specific binding [4]: 12.4% | pod_httr_bifrost PoD [6]: 0.08892 µM | podl_path_minbmd PoD [6]: 210.107 µM | pod_httr_bifrost PoD [7]: 118.124 µM | podl_path_minbmd PoD [7]: 783.625 µM | pod_httr_bifrost PoD [10]: 7.071 µM | podl_path_minbmd PoD [10]: 31.838 µM | pEC50 [21]: < 3.52 | PoD (NOAEL) ([22]; 42 days, developmental neurotox study, ref ToxRefDB/Paul-Friedman et al. (2020)/regulatory opinions): 45 mg/kg bw/day | IPP screening %, Coactivator recruitment [12, 25]: -1.0% | Specific binding [13]: 19.4% | pod_cell_stress PoD [14]: 3.329 µM | Specific binding [15, 26]: 6.8% | risk [16]: 1 | Specific binding [18]: 17.5% | IPP screening %, Specific binding [19, 27]: -4.0%

O=C1CN(N=Cc2ccc([N+](=O)[O-])o2)C(=O)N1 [Nitrofurantoin, 1-{[(5-Nitrofuran-2-yl)methylidene]amino}imidazolidine-2,4-dione]
Specific binding ([3]; IPP screening at 10 uM): 37.8% | Specific binding [4]: 4.4% | pod_httr_bifrost PoD [6]: 0.3553 µM | podl_path_minbmd PoD [6]: 7.519 µM | pod_httr_bifrost PoD [7]: 0.5233 µM | podl_path_minbmd PoD [7]: 2.98 µM | pod_httr_bifrost PoD [10]: 0.1863 µM | podl_path_minbmd PoD [10]: 2.332 µM | PoD (NOAEL) ([22]; in vivo): 60 mg/kg bw/day | IPP screening %, Coactivator recruitment ([12]; 10 uM): 0.0% | Specific binding [13]: 7.2% | pod_cell_stress PoD [14]: 0.5175 µM | Specific binding [15]: -2.8% | risk [16]: 1 | Specific binding [23]: -6.9% | Specific binding ([18]; IPP screening at 10 uM, control α-dendrotoxin): -14.6% | IPP screening %, Specific binding [19]: 7.0% | Reported AUC0-t [24, 28]: 3040 to 6400 ng·h/mL | Reported cmax [24, 28]: 0.21 to 0.45 mg/L | Reported tmax [24, 28]: 30 to 300 min | Reported AUC0-t [24, 29]: 940 to 10970 ng·h/mL | Reported cmax [24, 29]: 0.22 to 1.26 mg/L | Reported tmax [24, 29]: 30 to 300 min

Reference: PMC11879040, “Advancing systemic toxicity risk assessment: Evaluation of a NAM-based toolbox approach” (Toxicological Sciences, 2024)
